According to ChEMBL document CHEMBL5030517, “6-Halopyridylmethylidene Penicillin-Based Sulfones Efficiently Inactivate the Natural Resistance of Pseudomonas aeruginosa to β-Lactam Antibiotics” (J Med Chem, 2021):
The source made the active and inactive calls.

How the values were obtained:
[1] = Inhibition beta lactamase PDC-1 in Pseudomonas aeruginosa PAO1 using nitrocefin as substrate measured by 96 well microtitre plate
[2] = tested on: Pseudomonas aeruginosa PAO1; assay: Inhibition beta lactamase PDC-1 in Pseudomonas aeruginosa PAO1 assessed as maximum rate of inactivation using nitrocefin as substrate measured by 96 well microtitre plate
[3] = tested on: Pseudomonas aeruginosa PAO1; assay: Inhibition of beta-lactamase activity in Pseudomonas aeruginosa PAO1 deltaC+pUCP-(PDC-1) assessed as MIC for cefpodoxime antibacterial activity at 4 mg/L by broth microdilution method
[4] = tested on: Pseudomonas aeruginosa PAO1; assay: Inhibition of beta-lactamase activity in Pseudomonas aeruginosa PAO1 13/09-018 (ST-175) assessed as MIC for cefpodoxime antibacterial activity at 4 mg/L by broth microdilution method
[5] = tested on: Pseudomonas aeruginosa PAO1; assay: Inhibition of beta-lactamase activity in Pseudomonas aeruginosa PAO1 deltadacBdeltaampD assessed as MIC for cefpodoxime antibacterial activity at 16 mg/L by broth microdilution method
[6] = tested on: Pseudomonas aeruginosa PAO1; assay: Inhibition of beta-lactamase activity in Pseudomonas aeruginosa PAO1 PAHUAC-27(ST-22) assessed as MIC for cefpodoxime antibacterial activity at 4 mg/L by broth microdilution method
[7] = tested on: Pseudomonas aeruginosa PAO1; assay: Inhibition of beta-lactamase activity in Pseudomonas aeruginosa PAO1 deltadacBdeltadacC assessed as MIC for cefpodoxime antibacterial activity at 4 mg/L by broth microdilution method
[8] = tested on: Pseudomonas aeruginosa PAO1; assay: Inhibition of beta-lactamase activity in Pseudomonas aeruginosa PAO1 assessed as MIC for cefpodoxime antibacterial activity at 16 mg/L by broth microdilution method
[9] = tested on: Pseudomonas aeruginosa PAO1; assay: Inhibition of beta-lactamase activity in Pseudomonas aeruginosa PAO1 36/14-210 (ST-235) assessed as MIC for cefpodoxime antibacterial activity at 16 mg/L by broth microdilution method
[10] = tested on: Pseudomonas aeruginosa PAO1; assay: Inhibition of beta-lactamase activity in Pseudomonas aeruginosa PAO1 deltadacBdeltaampD assessed as MIC for cefpodoxime antibacterial activity at 4 mg/L by broth microdilution method
[11] = tested on: Pseudomonas aeruginosa PAO1; assay: Inhibition of beta-lactamase activity in Pseudomonas aeruginosa PAO1 PAHUAC-27(ST-22) assessed as MIC for cefpodoxime antibacterial activity at 16 mg/L by broth microdilution method
[12] = tested on: Pseudomonas aeruginosa PAO1; assay: Inhibition of beta-lactamase activity in Pseudomonas aeruginosa PAO1 PAHUAC-14 (ST-966) assessed as MIC for cefpodoxime antibacterial activity at 4 mg/L by broth microdilution method
[13] = tested on: Pseudomonas aeruginosa PAO1; assay: Inhibition of beta-lactamase activity in Pseudomonas aeruginosa PAO1 deltaampD assessed as MIC for cefpodoxime antibacterial activity at 4 mg/L by broth microdilution method
[14] = Inhibition beta lactamase PDC-1 in Pseudomonas aeruginosa PAO1 assessed as apparent inhibition constant using nitrocefin as substrate measured by 96 well microtitre plate; details: read-out: Ki(app)
[15] = tested on: Pseudomonas aeruginosa PAO1; assay: Inhibition of beta-lactamase activity in Pseudomonas aeruginosa PAO1 deltadacB assessed as MIC for cefpodoxime antibacterial activity at 16 mg/L by broth microdilution method
[16] = tested on: Pseudomonas aeruginosa PAO1; assay: Inhibition of beta-lactamase activity in Pseudomonas aeruginosa PAO1 53/22-113 (ST-244) assessed as MIC for cefpodoxime antibacterial activity at 4 mg/L by broth microdilution method
[17] = tested on: Pseudomonas aeruginosa PAO1; assay: Inhibition of beta-lactamase activity in Pseudomonas aeruginosa PAO1 deltaampD assessed as MIC for cefpodoxime antibacterial activity at 16 mg/L by broth microdilution method
[18] = tested on: Pseudomonas aeruginosa PAO1; assay: Inhibition of beta-lactamase activity in Pseudomonas aeruginosa PAO1 deltadacB assessed as MIC for cefpodoxime antibacterial activity at 4 mg/L by broth microdilution method
[19] = tested on: Pseudomonas aeruginosa PAO1; assay: Inhibition of beta-lactamase activity in Pseudomonas aeruginosa PAO1 36/14-210 (ST-235) assessed as MIC for cefpodoxime antibacterial activity at 4 mg/L by broth microdilution method
[20] = tested on: Pseudomonas aeruginosa PAO1; assay: Inhibition of beta-lactamase activity in Pseudomonas aeruginosa PAO1 assessed as MIC for cefpodoxime antibacterial activity at 4 mg/L by broth microdilution method
[21] = tested on: Pseudomonas aeruginosa PAO1; assay: Inhibition of beta-lactamase activity in Pseudomonas aeruginosa PAO1 17/14-017 (ST-235) assessed as MIC for cefpodoxime antibacterial activity at 16 mg/L by broth microdilution method
[22] = tested on: Pseudomonas aeruginosa PAO1; assay: Inhibition of beta-lactamase activity in Pseudomonas aeruginosa PAO1 deltaC+pUCP-(PDC-1) assessed as MIC for cefpodoxime antibacterial activity at 16 mg/L by broth microdilution method
[23] = tested on: Pseudomonas aeruginosa PAO1; assay: Inhibition of beta-lactamase activity in Pseudomonas aeruginosa PAO1 deltadacBdeltapbpGdeltadacC assessed as MIC for cefpodoxime antibacterial activity at 4 mg/L by broth microdilution method
[24] = tested on: Pseudomonas aeruginosa PAO1; assay: Inhibition of beta-lactamase activity in Pseudomonas aeruginosa PAO1 deltaC assessed as MIC for cefpodoxime antibacterial activity at 4 mg/L by broth microdilution method
[25] = tested on: Pseudomonas aeruginosa PAO1; assay: Inhibition of beta-lactamase activity in Pseudomonas aeruginosa PAO1 6/04-224 (ST-175) assessed as MIC for cefpodoxime antibacterial activity at 16 mg/L by broth microdilution method
[26] = tested on: Pseudomonas aeruginosa PAO1; assay: Inhibition of beta-lactamase activity in Pseudomonas aeruginosa PAO1 deltaC assessed as MIC for cefpodoxime antibacterial activity at 16 mg/L by broth microdilution method
[27] = tested on: Pseudomonas aeruginosa PAO1; assay: Inhibition beta lactamase PDC-1 in Pseudomonas aeruginosa PAO1 assessed as deacylation off-rate using nitrocefin as substrate at 30 mins measured by 96 well microtitre plate
[28] = tested on: Pseudomonas aeruginosa PAO1; assay: Inhibition of beta-lactamase activity in Pseudomonas aeruginosa PAO1 13/09-018 (ST-175) assessed as MIC for cefpodoxime antibacterial activity at 16 mg/L by broth microdilution method
[29] = tested on: Pseudomonas aeruginosa PAO1; assay: Inhibition of beta-lactamase activity in Pseudomonas aeruginosa PAO1 deltadacBdeltapbpGdeltadacC assessed as MIC for cefpodoxime antibacterial activity at 16 mg/L by broth microdilution method
[30] = tested on: Pseudomonas aeruginosa PAO1; assay: Inhibition of beta-lactamase activity in Pseudomonas aeruginosa PAO1 deltaDdeltsDh2deltaDh3 assessed as MIC for cefpodoxime antibacterial activity at 16 mg/L by broth microdilution method
[31] = tested on: Pseudomonas aeruginosa PAO1; assay: Inhibition of beta-lactamase activity in Pseudomonas aeruginosa PAO1 53/22-113 (ST-244) assessed as MIC for cefpodoxime antibacterial activity at 16 mg/L by broth microdilution method
[32] = tested on: Pseudomonas aeruginosa PAO1; assay: Inhibition of beta-lactamase activity in Pseudomonas aeruginosa PAO1 23/14-053 (ST-309) assessed as MIC for cefpodoxime antibacterial activity at 16 mg/L by broth microdilution method
[33] = tested on: Pseudomonas aeruginosa PAO1; assay: Inhibition of beta-lactamase activity in Pseudomonas aeruginosa PAO1 deltaDdeltsDh2deltaDh3 assessed as MIC for cefpodoxime antibacterial activity at 4 mg/L by broth microdilution method
[34] = tested on: Pseudomonas aeruginosa; assay: Inhibition of beta lactamase PDC-1 in Pseudomonas aeruginosa PAO1 for 30 min using MALDI TOF-MS analysis
[35] = tested on: Pseudomonas aeruginosa PAO1; assay: Inhibition of beta-lactamase activity in Pseudomonas aeruginosa PAO1 6/04-224 (ST-175) assessed as MIC for cefpodoxime antibacterial activity at 4 mg/L by broth microdilution method
[36] = tested on: Pseudomonas aeruginosa PAO1; assay: Inhibition beta lactamase PDC-1 in Pseudomonas aeruginosa PAO1 assessed as inactivation efficiency by measuring acylation rate (k2/K) using nitrocefin as substrate measured by 96 well microtitre plate
[37] = tested on: Pseudomonas aeruginosa PAO1; assay: Inhibition of beta-lactamase activity in Pseudomonas aeruginosa PAO1 deltadacBdeltadacC assessed as MIC for cefpodoxime antibacterial activity at 16 mg/L by broth microdilution method
[38] = tested on: Pseudomonas aeruginosa PAO1; assay: Inhibition beta lactamase PDC-1 in Pseudomonas aeruginosa PAO1 assessed half life of nitrocefin substrate measured by 96 well microtitre plate assay
[39] = tested on: Pseudomonas aeruginosa PAO1; assay: Inhibition of beta-lactamase activity in Pseudomonas aeruginosa PAO1 deltaC+pUCP-(PDC-5) assessed as MIC for cefpodoxime antibacterial activity at 4 mg/L by broth microdilution method
[40] = tested on: Pseudomonas aeruginosa PAO1; assay: Inhibition of beta-lactamase activity in Pseudomonas aeruginosa PAO1 23/14-053 (ST-309) assessed as MIC for cefpodoxime antibacterial activity at 4 mg/L by broth microdilution method
[41] = tested on: Pseudomonas aeruginosa PAO1; assay: Inhibition of beta lactamase PDC-1 in Pseudomonas aeruginosa PAO1 assessed as reduction in enzyme activity using nitrocefin as chromogenic substrate preincubated for 10 min using 96 well microtiter plate
[42] = tested on: Pseudomonas aeruginosa PAO1; assay: Inhibition of beta-lactamase activity in Pseudomonas aeruginosa PAO1 PAHUAC-14 (ST-966) assessed as MIC for cefpodoxime antibacterial activity at 16 mg/L by broth microdilution method
[43] = tested on: Pseudomonas aeruginosa PAO1; assay: Inhibition of beta-lactamase activity in Pseudomonas aeruginosa PAO1 17/14-017 (ST-235) assessed as MIC for cefpodoxime antibacterial activity at 4 mg/L by broth microdilution method
[44] = tested on: Pseudomonas aeruginosa PAO1; assay: Inhibition beta lactamase PDC-1 in Pseudomonas aeruginosa PAO1 assessed as ratio of kinact/K1 using nitrocefin as substrate measured by 96 well microtitre plate
[45] = tested on: Pseudomonas aeruginosa PAO1; assay: Inhibition of beta-lactamase activity in Pseudomonas aeruginosa PAO1 deltaC+pUCP-(PDC-5) assessed as MIC for cefpodoxime antibacterial activity at 16 mg/L by broth microdilution method

O=C(O)[C@H]1/C(=C/CO)O[C@@H]2CC(=O)N21 [CLAVULANIC ACID]
> 200 µM: IC50 [1]

C[C@]1(COC(=O)Cc2ccc(O)c(O)c2)[C@H](C(=O)O)N2C(=O)/C(=C/c3ccccn3)[C@H]2S1(=O)=O
0.5 µg/mL: MIC [15] | MIC [29] | MIC [30] | MIC [37]
inactive: inhibition [34] | inhibition [41]
0.046 s⁻¹: Kinact [2]
9 10^-2/min: K [27]
2 µg/mL: MIC [4] | MIC [6] | MIC [13] | MIC [21] | MIC [39] | MIC [42] | MIC [43] | MIC [45]
8 µg/mL: MIC [9] | MIC [10] | MIC [16] | MIC [25] | MIC [28] | MIC [35]
1 µg/mL: MIC [3] | MIC [5] | MIC [7] | MIC [8] | MIC [11] | MIC [17] | MIC [18] | MIC [20] | MIC [22] | MIC [23] | MIC [24] | MIC [26] | MIC [32] | MIC [40]
0.053 µM: Ki [14]
1.5 M⁻¹ s⁻¹: k2/K inactivation efficiency [36]
6.3 10^5/M/s: K [44]
0.0061 µM: IC50 [1]
16 µg/mL: MIC [12] | MIC [19]
4 µg/mL: MIC [31] | MIC [33]
1.37 h: T1/2 [38]

C[C@]1(COC(=O)Cc2ccc(O)c(O)c2)[C@H](C(=O)O)N2C(=O)/C(=C/c3cc(Br)ccn3)[C@H]2S1(=O)=O
7 10^-2/min: K [27]
20.9 10^5/M/s: K [44]
0.014 µM: Ki [14]
1 µg/mL: MIC [3] | MIC [5] | MIC [6] | MIC [7] | MIC [8] | MIC [11] | MIC [13] | MIC [17] | MIC [18] | MIC [20] | MIC [22] | MIC [23] | MIC [24] | MIC [26] | MIC [30] | MIC [33] | MIC [45]
6.2 M⁻¹ s⁻¹: k2/K inactivation efficiency [36]
0.5 µg/mL: MIC [15] | MIC [29] | MIC [37]
16 µg/mL: MIC [19]
0.032 s⁻¹: Kinact [2]
2 µg/mL: MIC [4] | MIC [21] | MIC [32] | MIC [39] | MIC [40] | MIC [42] | MIC [43]
4 µg/mL: MIC [10] | MIC [12] | MIC [16] | MIC [31]
8 µg/mL: MIC [9] | MIC [25] | MIC [28] | MIC [35]
inactive: inhibition [34] | inhibition [41]
1.75 h: T1/2 [38]
0.0009 µM: IC50 [1]

CC1(C)[C@H](C(=O)O)N2C(=O)C[C@H]2S1(=O)=O [SULBACTAM]
4.37 µM: IC50 [1]
